Measured values taken from patent US4604239A, “Antibiotics” (Eli Lilly and Company, priority 1985, dated 1986).
Like-named read-outs stand apart in the source and are kept apart here.

Tests used:
[1] = tested on: Staph. aureus; experiment: experimental bacterial infection in mice; type: in vivo; conditions: two doses subcutaneously
Experimental: All of the A41030 factors tested have shown in vivo antimicrobial activity against experimental bacterial infections. When two doses of test compound were administered subcutaneously to mice in illustrative infections, the activity observed is measured as an ED50 value [effective dose in mg./kg. to protect fifty percent of the test animals: See Warren Wick, et al., J. Bacteriol. 81, 233-235 (1961)].

[2] = tested on: Fusobacterium symbiosum; experiment: agar-dilution MIC; type: cell-based; conditions: Fusobacterium symbiosum 1470; Table 14
[3] = tested on: Propionibacterium acnes; experiment: agar-dilution MIC; type: cell-based
Description: Antibiotic A41030 factors A, B and C have also been tested and found to be active against a genus of anaerobic bacteria identified as Propionibacterium acnes.

[4] = tested on: Peptostreptococcus anaerobius; experiment: agar-dilution MIC; type: cell-based
[5] = tested on: Bacteroides melaninogenicus; experiment: agar-dilution MIC; type: cell-based; conditions: Bacteroides melaninogenicus 2736; Table 14
[6] = tested on: S. pyogenes; experiment: experimental bacterial infection in mice; type: in vivo; conditions: against S. pyogenes in mice; oral
[7] = tested on: Clostridium perfringens; type: cell-based; conditions: Clostridium perfringens 81; Table 14
[8] = tested on: Staphylococcus aureus; experiment: agar-dilution MIC; type: cell-based; conditions: in µg/mL
[9] = tested on: Peptococcus prevoti; experiment: agar-dilution MIC; type: cell-based
[10] = tested on: Bacteroides thetaiotaomicron; type: cell-based
Description: (§1) The agar-dilution procedure described by the International Collaborative study (ICS) group was used to determine the minimum inhibitory concentrations (MIC's).

[11] = tested on: Clostridium septicum; experiment: agar-dilution MIC; type: cell-based; conditions: Clostridium septicum 1128; Table 14
[12] = solubility; type: physicochemical
[13] = electrometric titration; type: physicochemical; conditions: electrometric titration in 66% dimethylformamide in water
Description: Antibiotic A41030 factor A is a white, crystalline solid.

[14] = tested on: Bacteroides vulgatis; experiment: agar-dilution MIC; type: cell-based; conditions: B. vulgatis 1563; 24-hour; Table 12
Description: (§2) The A41030 antibiotics, factors A, B, and C, are active against a genus of anaerobic bacteria identified as Bacteroides sp., the 24-hour MIC values being determined by the agar-dilution method, and are set forth in Table 12, which follows.

[15] = tested on: Bacteroides corrodens; experiment: agar-dilution MIC; type: cell-based; conditions: B. corrodens 1874; 24-hour; Table 12
Description: as §2

[16] = tested on: Bacteroides corrodens; experiment: agar-dilution MIC; type: cell-based; conditions: Bacteroides corrodens 1874; Table 14
[17] = tested on: Peptostreptococcus intermedius; experiment: agar-dilution MIC; type: cell-based; conditions: Table 15
[18] = tested on: Bacteroides vulgatis; experiment: agar-dilution MIC; type: cell-based; conditions: Bacteroides vulgatis 1211; Table 14
[19] = tested on: Fusobacterium necrophorum; experiment: agar-dilution MIC; type: cell-based; conditions: Fusobacterium necrophorum 6054A; Table 14
[20] = tested on: Streptococcus sp. (Group D); experiment: agar-dilution MIC; type: cell-based; conditions: Table 17
Description: as §1

[21] = tested on: Streptococcus pyogenes; experiment: agar-dilution MIC; type: cell-based; conditions: Streptococcus pyogenes C203; Table 17
Description: as §1

[22] = tested on: Streptococcus pneumoniae; experiment: agar-dilution MIC; type: cell-based; conditions: Streptococcus pneumoniae Park I; Table 17
Description: as §1

[23] = tested on: Peptococcus constellatus; experiment: agar-dilution MIC; type: cell-based; conditions: Pc. constellatus 1468; Table 15
Experimental: (§3) The MIC values were determined by the agar-dilution method, and are recorded in Table 15, which follows.

[24] = tested on: Peptococcus prevoti; experiment: agar-dilution MIC; type: cell-based; conditions: Table 15
Experimental: as §3

[25] = tested on: Peptococcus asaccharolyticus; experiment: agar-dilution MIC; type: cell-based
Experimental: as §3

[26] = tested on: Peptococcus magnus; experiment: agar-dilution MIC; type: cell-based; conditions: Table 15
Experimental: as §3

A41030 factor C
ED50 [1]: < 0.43 mg/kg
MIC [2]: 1.0 µg/mL
MIC ([3]; P. acnes 104, 24-hour, Table 13): 0.25 µg/mL
MIC ([3]; P. acnes 5170, 24-hour, Table 13): ≤ 0.03 µg/mL
MIC ([3]; P. acnes 5176, 24-hour, Table 13): ≤ 0.03 µg/mL
MIC ([3]; P. acnes 5187, 24-hour, Table 13): 0.06 µg/mL
MIC ([3]; P. acnes 5197, 24-hour, Table 13): ≤ 0.03 µg/mL
MIC ([3]; P. acnes 5227, 24-hour, Table 13): 0.06 µg/mL
MIC ([3]; P. acnes 5228, 24-hour, Table 13): 1.0 µg/mL
MIC ([3]; P. acnes 5229, 24-hour, Table 13): 0.5 µg/mL
MIC ([3]; P. acnes 5246, 24-hour, Table 13): 0.06 µg/mL
MIC ([3]; P. acnes 5292, 24-hour, Table 13): 0.06 µg/mL
MIC ([3]; Propionibacterium acnes 79, Table 14): ≤ 0.25 µg/mL
MIC ([4]; Peptostreptococcus anaerobius 1428, Table 14): ≤ 0.25 µg/mL
MIC ([4]; Ps. anaerobius 52, Table 15): 0.25 µg/mL
MIC ([4]; Ps. anaerobius 59, Table 15): 0.25 µg/mL
MIC ([4]; Ps. anaerobius 1418, Table 15): ≤ 0.03 µg/mL
MIC ([4]; Ps. anaerobius 1428, Table 15): 0.25 µg/mL
MIC ([4]; Ps. anaerobius 1451, Table 15): 0.25 µg/mL
MIC ([4]; Ps. anaerobius 1477, Table 15): 0.25 µg/mL
MIC [5]: 4 µg/mL
in vivo oral activity [6]: > 300 mg./kg. X 2
MIC [7]: 1.0 µg/mL
MIC [8]: 1
MIC ([9]; Pc. prevoti 1281, Table 15): 1.0 µg/mL
MIC ([9]; Peptococcus prevoti 1281, Table 14): ≤ 0.25 µg/mL
MIC ([10]; B. thetaiotaomicron 1438, 24-hour, Table 12): 32 µg/mL
MIC ([10]; Bacteroides thetaiotaomicron 1438, Table 14): 64 µg/mL
MIC [11]: 8 µg/mL
solubility (solvents) [12]: soluble in the same solvents as factor A
possibly additional pKa's [13]: > 10
MIC [14]: 32 µg/mL
MIC [15]: 32 µg/mL
MIC [16]: 32 µg/mL
MIC ([17]; Ps. intermedius 1264): ≤ 0.03 µg/mL
MIC ([17]; Ps. intermedius 1624): 1.0 µg/mL
MIC [18]: 32 µg/mL
MIC [19]: 16 µg/mL
MIC ([20]; Streptococcus sp. Group D 9960): 4 µg/mL
MIC ([20]; Streptococcus sp. Group D X66): 2 µg/mL
MIC [21]: 1 µg/mL
MIC [22]: 1 µg/mL
MIC [23]: 0.5 µg/mL
MIC ([24]; Pc. prevoti 1293): 0.5 µg/mL
MIC ([24]; Pc. prevoti 1407): 1.0 µg/mL
MIC ([25]; Pc. asaccharolyticus 1344, Table 15): 1.0 µg/mL
MIC ([25]; Peptococcus asaccharolyticus 1302, Table 14): ≤ 0.25 µg/mL
MIC ([26]; Pc. magnus 1401): 0.25 µg/mL
MIC ([26]; Pc. magnus 1421): 0.25 µg/mL
MIC ([26]; Pc. magnus 1477): 0.5 µg/mL
